Results published in the NIST ThermoML archive (doi:10.1021/je050389b).

Assay: xn = mol fraction of the nth substance listed
Settings: Liquid; for viscosity: 100.5 kPa; for mass density: 101 kPa

CCCC(=O)OCCC(C)C [3-methylbutyl butanoate] + CCO
Settings	mass density, 288.15 K [kg/m3]	mass density, 298.15 K [kg/m3]	mass density, 308.15 K [kg/m3]	mass density, 318.15 K [kg/m3]	viscosity, 288.15 K [mPa·s]	viscosity, 298.15 K [mPa·s]	viscosity, 308.15 K [mPa·s]	viscosity, 318.15 K [mPa·s]
x1 = 0.05	804.06	795.35	786.52	777.54	1.27	1.057	0.887	0.744
x1 = 0.1	812.38	803.57	794.63	785.54	1.231	1.025	0.858	0.723
x1 = 0.15	819.51	810.61	801.58	792.4	1.201	1.004	0.844	0.715
x1 = 0.2	825.58	816.61	807.52	798.28	1.181	0.993	0.838	0.711
x1 = 0.25	830.83	821.8	812.66	803.38	1.171	0.985	0.834	0.71
x1 = 0.3	835.41	826.34	817.17	807.86	1.167	0.98	0.832	0.71
x1 = 0.35	839.37	830.31	821.11	811.78	1.168	0.98	0.833	0.714
x1 = 0.4	842.96	833.85	824.64	815.3	1.17	0.984	0.835	0.717
x1 = 0.45	846.14	837.02	827.79	818.44	1.176	0.989	0.84	0.723
x1 = 0.5	849.03	839.9	830.66	821.32	1.183	0.994	0.846	0.729
x1 = 0.55	851.61	842.46	833.24	823.9	1.191	1.001	0.853	0.735
x1 = 0.6	854.01	844.86	835.64	826.33	1.202	1.01	0.862	0.743
x1 = 0.65	856.19	847.05	837.84	828.54	1.213	1.021	0.872	0.751
x1 = 0.7	858.18	849.04	839.85	830.57	1.224	1.031	0.882	0.76
x1 = 0.75	860.04	850.92	841.74	832.49	1.237	1.043	0.891	0.77
x1 = 0.8	861.76	852.65	843.5	834.28	1.253	1.056	0.903	0.781
x1 = 0.85	863.35	854.28	845.15	835.96	1.268	1.071	0.915	0.792
x1 = 0.9	864.86	855.81	846.71	837.56	1.284	1.086	0.929	0.806
x1 = 0.95	866.3	857.28	848.22	839.12	1.302	1.099	0.941	0.817
x1 = 1	867.72	858.69	849.62	840.55	1.317	1.111	0.952	0.827

CCOC(=O)c1ccccc1 [ethyl benzoate] + CCO
Settings	mass density, 288.15 K [kg/m3]	mass density, 298.15 K [kg/m3]	mass density, 308.15 K [kg/m3]	mass density, 318.15 K [kg/m3]	viscosity, 288.15 K [mPa·s]	viscosity, 298.15 K [mPa·s]	viscosity, 308.15 K [mPa·s]	viscosity, 318.15 K [mPa·s]
x1 = 0.05	824.59	815.81	806.92	797.88	1.342	1.108	0.926	0.778
x1 = 0.1	851.02	842.08	833.03	823.84	1.36	1.123	0.938	0.793
x1 = 0.15	874.07	865.01	855.84	846.52	1.388	1.148	0.959	0.812
x1 = 0.2	894.37	885.22	875.95	866.54	1.425	1.176	0.984	0.833
x1 = 0.25	912.35	903.11	893.77	884.29	1.465	1.208	1.012	0.857
x1 = 0.3	928.37	919.07	909.68	900.15	1.51	1.244	1.042	0.881
x1 = 0.35	942.79	933.45	924.02	914.45	1.557	1.282	1.072	0.908
x1 = 0.4	955.85	946.47	937	927.41	1.607	1.321	1.105	0.935
x1 = 0.45	967.71	958.3	948.81	939.2	1.661	1.363	1.138	0.964
x1 = 0.5	978.51	969.07	959.57	949.95	1.715	1.405	1.173	0.993
x1 = 0.55	988.43	978.97	969.46	959.84	1.773	1.449	1.209	1.024
x1 = 0.6	997.48	988.07	978.54	968.93	1.833	1.496	1.247	1.055
x1 = 0.65	1005.91	996.46	986.94	977.35	1.895	1.544	1.286	1.089
x1 = 0.7	1013.67	1004.22	994.7	985.12	1.959	1.595	1.326	1.124
x1 = 0.75	1020.94	1011.5	1002.01	992.45	2.028	1.649	1.37	1.159
x1 = 0.8	1027.63	1018.2	1008.72	999.19	2.099	1.705	1.416	1.198
x1 = 0.85	1033.99	1024.57	1015.13	1005.64	2.178	1.767	1.465	1.241
x1 = 0.9	1039.87	1030.48	1021.06	1011.62	2.267	1.836	1.521	1.288
x1 = 0.95	1045.45	1036.09	1026.72	1017.33	2.373	1.917	1.582	1.335
x1 = 1	1050.78	1041.42	1032.07	1022.73	2.444	1.971	1.624	1.368
